Results on eleven compounds are retold here after ChEMBL document CHEMBL4619734, “Molecule Property Analyses of Active Compounds for Mycobacterium tuberculosis” (J Med Chem, 2020).

What all share (assay type): functional
Test [1] deals with Mycobacterium tuberculosis. Nature of the test: Antitubercular activity against Mycobacterium tuberculosis harboring mmpL3.
In test [2] the test system is Mycobacterium tuberculosis. Description: Antimycobacterial activity against multi drug-resistant Mycobacterium tuberculosis H37Rv.
Test [3] has as its system Mycobacterium tuberculosis. Description: Antimycobacterial activity against multi drug-resistant Mycobacterium tuberculosis.
Test [4] has as its system Mycobacterium tuberculosis. Nature of the test: Antimycobacterial activity against multi drug-resistant Mycobacterium tuberculosis expressing WecA.
Test [5] relates to Mycobacterium tuberculosis. Description: Antimycobacterial activity against Mycobacterium tuberculosis drug resistant clinical isolates.

SMILES strings stand for the structures. In brackets after ≈: the same amount, converted by molar mass.

Broadly, the MIC is the lowest concentration found to suppress growth. Turning to `Cc1c(CN2CCN(c3ccc(C(F)(F)F)cc3)CC2)cc(-c2ccccc2)n1NC(=O)c1ccncc1`, the minimal inhibitory concentration (MIC) in test [1] is 0.025 to 0.12 µg/mL (≈ 0.0481 to 0.231 µM).
In test [1], `Cc1c(CN2CCN(C)CC2)cc(-c2ccc(Cl)cc2)n1-c1ccc(Cl)cc1` displayed an MIC of 0.7 to 6.2 µg/mL (≈ 1.69 to 15 µM).
A word on the MIC90: it is an inhibitory concentration at the 90% level, which refers to growth in some studies and to a panel of isolates in others. A higher MIC90 goes with lower susceptibility. With `Cc1cc2nc(CCc3cc(Cl)cc(Cl)c3)[nH]c2cc1C`, the MIC90 in test [2] is 5 µM (≈ 1.6 µg/mL).
In test [3], `CC/N=c1\cc2n(-c3ccc(C(F)(F)F)cc3)c3ccccc3nc-2cc1Nc1ccc(C(F)(F)F)cc1` returned an MIC of 0.25 µg/mL (≈ 0.475 µM).
The same measure, in the same setting: as for `CCN(CC)C/N=c1\cc2n(-c3ccc(Cl)c(Cl)c3)c3ccccc3nc-2cc1Nc1ccc(Cl)c(Cl)c1`, the figure is 0.12 µg/mL (≈ 0.205 µM).
As for `CCCCc1ccc(NC(=O)C2=CCN(C)C(C(O[C@@H]3O[C@H](CN)[C@@H](O)[C@H]3O)[C@H]3OC(n4ccc(=O)[nH]c4=O)[C@H](O)[C@@H]3O)C(=O)N2C)cc1` (stereo partly specified), the minimum inhibitory concentration (MIC) in test [4] was determined as 6.25 µg/mL (≈ 9.07 µM).
Consider `Cc1c(CN2CCSCC2)cc(-c2ccc(F)cc2)n1-c1ccccc1`, for which, in test [1], the minimum inhibitory concentration (MIC) amounted to 0.5 µg/mL (≈ 1.36 µM).
As for `CC(C)/N=c1\cc2n(-c3ccc(Cl)cc3)c3ccccc3nc-2cc1Nc1ccc(Cl)cc1` [CLOFAZIMINE], the minimal inhibitory concentration (MIC) in test [3] was found to be 1 µg/mL (≈ 2.11 µM).
`C[C@]1(COc2ccc(N3CCC(Oc4ccc(OC(F)(F)F)cc4)CC3)cc2)Cn2cc([N+](=O)[O-])nc2O1` [DELAMANID] registered a minimal inhibitory concentration (MIC) in test [5] of 0.01 µg/mL (≈ 0.0187 µM).
On to `O=[N+]([O-])c1cn2c(n1)OC[C@@H](OCc1ccc(OC(F)(F)F)cc1)C2` [PRETOMANID], for which, in test [5], the MIC90 is 0.531 µg/mL (≈ 1.48 µM).
`CC(C)=CCC/C(C)=C/CNCCNC1C2CC3CC(C2)CC1C3` (stereo unspecified) [SQ109] yielded a minimal inhibitory concentration (MIC) in test [1] of 0.16 to 0.64 µg/mL (≈ 0.484 to 1.94 µM).
